# Tests used:
# [1] = tested on: PDE4 subtypes, A-D; details: cited from earlier work
# [2] = tested on: IPF patients; assay: Phase II clinical trial in IPF patients: completion / premature discontinuation of observation and treatment period; assay type: in vivo, human; details: 18 mg b.i.d.
# Protocol: The participants were divided into 2 groups by chance (the “active agent group” and the “placebo group”). […] One 12 mg placebo tablet and one 6 mg placebo tablet (both containing no active ingredient, see Table 1) was administered orally to the patients of the second group twice daily (b.i.d.).
# The “active agent group” and the “placebo group” were further distributed to two different groups regarding background medication: the “AF-group” (“antifibrotic background medication group”) and the “Non-AF-group” (“no antifibrotic background medication group”). […] The combination of both nintedanib and pirfenidone as background medication was not allowed in the “AF-group”.
# The trial was a randomised, double-blind, placebo-controlled parallel group study.
# [3] = tested on: human lung fibroblasts; details: combination with nintedanib; cited from earlier work
# [4] = AF-group (antifibrotic background)
smiles,measurement,setting,value
[O-][S@+]1CCc2nc(N3CCC(c4ncc(Cl)cn4)CC3)nc(NC3(CO)CCC3)c21 [Comp. of form. III],Preferential enzymatic inhibition among the PDE4 subtypes (in words),[1],inhibit preferentially the PDE4 B subtype
same,"Not completed planned treatment period (premature discontinuation), patients %",[2]; [4],20.4%
same,"Not completed planned treatment period (premature discontinuation), patients N",[2]; [4],10
same,"Observation period not completed: Death, patients %",[2]; [4],2.0%
same,"Observation period not completed: Death, patients N",[2]; [4],1
same,"Treatment period not completed: Adverse Event, patients %",[2]; [4],20.4%
same,"Treatment period not completed: Adverse Event, patients N",[2]; [4],10
same,"Not completed planned treatment period (premature discontinuation), patients %",[2]; Non-AF-group,10.4%
same,"Not completed planned treatment period (premature discontinuation), patients N",[2]; Non-AF-group,5
same,"Observation period not completed: Death, patients %",[2]; Non-AF-group,2.1%
same,"Observation period not completed: Death, patients N",[2]; Non-AF-group,1
same,"Treatment period not completed: Adverse Event, patients %",[2]; Non-AF-group,6.3%
same,"Treatment period not completed: Adverse Event, patients N",[2]; Non-AF-group,3
same,Effect on fibroblast proliferation (in words),[3],synergistic overadditive effect

# From US20230190754A1, “Therapeutic combinations for the treatment of Progressive Fibrosing interstitial lung diseases” (Boehringer Ingelheim International GmbH, priority 2021, published 2023)
